Laboratory results taken from patent US20250099491A1, “PREVENTION OR TREATMENT OF CARDIOVASCULAR DISEASES WITH HIGH PENETRATION PRODRUGS OF ASPIRIN AND OTHER NSAIDS” (Techfields Inc., priority 2022, published 2025).
Read-outs that look alike come from different tables or passages of the source.

Key:
[1] = system: rats with acute ischemia induced by Middle Cerebral Artery Occlusion (MCAO); assay: Example 16: acute ischemia induced by MCAO in rats; assay type: in vivo, rat; details: for mortalities: deaths of animals in group; for infarct volume: Day 14 after MCAO, TTC staining, mean±SEM; for reduction of infarct volumes: comparators: oral 60 mg/kg bid, Edaravone 3 mg/kg i.v. q.d.
[2] = rabbit
[3] = system: rats with acute ischemia induced by Middle Cerebral Artery Occlusion (MCAO); assay: Example 17: acute ischemia induced by MCAO in rats; assay type: in vivo, rat; details: for infarct volume: Day 14 after MCAO, TTC staining, mean±SEM; for reduction of infarct volumes: comparators: oral 60 mg/kg bid, Edaravone 3 mg/kg i.v. q.d.
[4] = system: rats with acute ischemia induced by Middle Cerebral Artery Occlusion (MCAO); assay: Example 18: acute ischemia induced by MCAO in rats; assay type: in vivo, rat; details: for infarct volume: Day 14 after MCAO, TTC staining, mean±SEM; for reduction of infarct volumes: comparators: oral 60 mg/kg bid, Edaravone 3 mg/kg i.v. q.d.
[5] = system: rats with acute ischemia induced by Middle Cerebral Artery Occlusion (MCAO); assay: Example 14: acute ischemia induced by middle cerebral artery occlusion (MCAO) in rats; assay type: in vivo, rat; details: for infarct volume: Day 14 after MCAO, TTC staining, mean±SEM; for reduction of infarct volumes: comparators: oral 60 mg/kg bid, Edaravone 3 mg/kg i.v. q.d.
[6] = system: rats with acute ischemia induced by Middle Cerebral Artery Occlusion (MCAO); assay: Example 15: acute ischemia induced by MCAO in rats; assay type: in vivo, rat; details: for infarct volume: Day 14 after MCAO, TTC staining, mean±SEM; for reduction of infarct volumes: comparators: oral 60 mg/kg bid, Edaravone 3 mg/kg i.v. q.d.
[7] = system: middle cerebral artery (MCA) thrombosis model of monkeys; assay: Example 19: middle cerebral artery (MCA) thrombosis model of monkeys; details: aspirin 20 mg/kg/time oral, twice a day
Experimental: Aspirin was administered orally by gavage using a nasal catheter with a disposal syringe. The catheter was inserted into the stomach through the mouth. The treatment was once per day of MCA thrombosis (day 0), twice per day for 27 days.
The monkeys that had been fastened for at least 12 h were anesthetized with intramuscular administration of ketamine hydrochloride (20 mg/kg), and placed on an operation-bed. Anesthesia was continued with 1.0% isoflurane in O2 gas until 30 min. The inhalation anesthesia was performed with anesthesia machines (SN23402, Hallowell engineering and manufacturing corporation, USA) and respirators (SN23402, Hallowell engineering and manufacturing corporation, USA), and placed on an operation-bed. During anesthesia, body temperature of the animals (rectal temperature) was controlled between 37.0±0.5° C. by heating mattresses (XMTA-7000, Delixi Electric., Ltd.).
Under anesthesia, the left eye was enucleated using a bipolar coagulation device (Valleylab Force 1C, USA). A craniotomy was then performed supralaterally to the left side of the optic nerve. The next day animals were anesthetized with ketamine hydrochloride (20 mg/kg) and the dura and subarachnoid membrane were opened. MCA thrombosis was induced by photochemical reaction. The proximal part of the main MCA trunk. was irradiated with green light wave length 532 nm achieved by use of a xenon lamp (GL532T3-100FC, Shanghai Laser& Optics Century Col., Ltd.). The irradiation was directed by a 3-mm diameteroptic fiber mounted on a micromanipulator. Irradiation was started and rose bengal 20 mg/kg was injected intravenously. Photoirradiation was continued for a 30 min. The dura was then covered with a moist gelatin sponge.
Neurological deficits (see Table 3) were assessed 1, 3, 5, 7, 14 and 28 days after the onset of MCA thrombosis (day 0) in a blind manner. The neurological deficits was scored on consciousness, sensory system, motor system and skeletal muscle coordination, and the total neurological deficit score was calculated by summing the scores of consciousness, sensory system, motor system and skeletal muscle coordination.
The survival monkeys were deeply anesthetized with pentobarbital sodium (35 mg/kg, i.v.) 28 days after the onset of MCA thrombosis. After cutting the atriums of heart, 200 mL of heparinized physiological saline (10 U/mL) was allowed to perfuse the brain via the common carotid arteries, and followed by perfusion of 200 mL of 10% formalin neutral buffer solution. The whole brain was removed, and then was put in pathology sample preservation packs containing 10% formalin neutral buffer solution. For each brain sample, the coronal sections (thickness: 7-8 μm) per site were prepared at 10 sites at 4-mm intervals. Slices per site were each stained with H & E reagent.
Measurement of cerebral infarct lesions was carried out in a blind manner. The infarct lesions in the ischemic side are defined as a necrotic portion compared with that in the contralateral side. The infarcted area of left cerebral hemisphere (A) in the cross-sections was traced and measured using a computerized image analysis system (image J).
When the infarct size of 2 serial section was made into D and D′, the infarcted volume using the thickness (4 mm) of a section is measured in the following formula:
Total infarcted volume is calculated by summing the infarcted volume of the 10 serial sections.

[8] = system: myocardial infarction in minipigs; assay: Example 20: myocardial infarction efficacy study in minipigs (circumflex coronary artery thrombosis); assay type: in vivo, minipig; details: aspirin 20 mg/kg/time oral, twice a day
Experimental: Total 24 male minipigs were used for this study. […] The minipigs were already quarantined and acclimated. Before animal being transferred from holding colony, a physical examination was performed and the acceptability of the animals for the study was evaluated by veterinary. […] [table] […] Under anesthesia, thoracotomy was carried out and the circumflex coronary artery of the heart was exposed. The circumflex coronary artery thrombosis was induced by photochemical reaction. […] Photoirradiation was continued for a 30 min. […] After cutting the femoral artery, thoracotomy was carried out and the heart was removed. […] TTC regent for 5 min. After staining with TTC reagent, the photograph of the heart 5 blocks was taken. All blocks were immersed in 10% formalin neutral buffer solution. The 2nd block appeared large necrotic area was cut sections (thickness: 7-8 μm). Slice was stained with H & E reagent. […] The infarct lesions were defined as a necrotic portion of TTC stained blocks. […] The histopathological alteration (necrosis, inflammation, granulation, etc.) of myocardial infarction was examined using H & E stained slides.

[9] = low dose 15 mg/kg topical bid 14 days
[10] = low, middle and high dose groups, Day 5-14, vs vehicle group by t-test
[11] = middle dose 30 mg/kg topical bid 14 days
[12] = high dose 60 mg/kg topical bid 14 days
[13] = high dose group compared to vehicle group
[14] = high dose groups vs vehicle group

Compound | The cumulative amount of test compounds ([2]; 1 h) [mg] | The cumulative amount of test compounds ([2]; 2 h) [mg] | The cumulative amount of test compounds ([2]; 4 h) [mg] | The cumulative amount of test compounds ([2]; 8 h) [mg] | also measured
(pyrrolidin-2-yl)methyl acetoxybenzoate hydrochloride [Compound-2] | – | – | – | – | mortalities ([1]; high dose 60 mg/kg topical bid): 0 of 25; infarct volume [1, 9]: 33.11%±2.212; neuroprotective effect on brain ischemic injury ([1]; low, middle and high dose groups compared to vehicle group): good neuroprotective effect; neurological deficit scores ([1]; low, middle and high dose groups vs vehicle group): show differences significantly; body weight [1, 10]: increased; infarct volume [1, 11]: 27.03%±2.123; mortalities ([1]; middle dose 30 mg/kg topical bid): 0 of 25
O=C(Oc1ccccc1C(=O)O)c1ccccc1O [Compound-18, 2-(2-hydroxybenzoyl)oxybenzoic acid, reference compound] | 0.000 | 0.000 | 0.001 | 0.001 | –
CC(=O)Oc1ccc(-c2ccc(F)cc2F)cc1C(=O)O [Compound-9, 2′,4′-difluoro-4-acetoxy-[1,1′-biphenyl]-3-carboxylic acid, reference compound] | 0.000 | 0.000 | 0.001 | 0.002 | infarct volume ([3]; 60 mg/kg oral bid 14 days): 38.95%±2.176; reduction of infarct volumes [3]: little reduction
CC1=NN(c2ccccc2)C(=O)C1 [Edaravone, reference compound] | – | – | – | – | infarct volume ([3]; 3 mg/kg i.v. q.d. 14 days): 40.35%±2.078; reduction of infarct volumes [3]: little reduction; infarct volume ([4]; 3 mg/kg i.v. q.d. 14 days): 41.33%±2.792; reduction of infarct volumes [4]: little reduction; infarct volume ([5]; 3 mg/kg i.v. q.d. 14 days): 38.07%±2.031; reduction of infarct volumes [5]: little reduction; infarct volume ([6]; 3 mg/kg i.v. q.d. 14 days): 39.94%±2.256; reduction of infarct volumes [6]: little reduction; infarct volume ([1]; 3 mg/kg i.v. q.d. 14 days): 39.27%±2.513; reduction of infarct volumes [1]: little reduction
O=C(O)c1cc(-c2ccc(F)cc2F)ccc1O [Compound-12, 2′,4′-difluoro-4-hydroxyl-[1,1′-biphenyl]-3-carboxylic acid, reference compound] | 0.000 | 0.001 | 0.001 | 0.003 | –
CC(=O)Oc1ccccc1C(=O)Oc1ccccc1C(=O)OCC1CCCN1.Cl (stereo not shown) [Compound-14, (pyrrolidin-2-yl)methyl 2-(2-acetoxybenzoyl)oxybenzoate hydrochloride] | 0.37 | 0.84 | 1.82 | 3.69 | infarct volume [4, 12]: 32.98%±2.546; mortalities ([4]; high dose 60 mg/kg topical bid, deaths of animals in group): 0 of 25; neuroprotective effect on brain ischemic injury [4, 13]: good neuroprotective effect; neurological deficit scores [4, 14]: show differences significantly; infarct volume [4, 9]: 36.87%±2.265; body weight [4, 10]: increased; infarct volume [4, 11]: 35.39%±2.479
CC(=O)Oc1ccc(-c2ccc(F)cc2F)cc1C(=O)OCC1CCCN1.Cl (stereo not shown) [Compound-8, (pyrrolidin-2-yl)methyl 2′,4′-difluoro-4-acetoxy-[1,1′-biphenyl]-3-carboxylate hydrochloride] | 0.45 | 0.98 | 2.02 | 4.11 | infarct volume [3, 12]: 33.53%±1.986; neuroprotective effect on brain ischemic injury [3, 13]: good neuroprotective effect; neurological deficit scores [3, 14]: show differences significantly; infarct volume [3, 9]: 37.52%±2.789; body weight [3, 10]: increased; infarct volume [3, 11]: 35.02%±2.827
CCN(CC)CCOC(=O)c1cc(-c2ccc(F)cc2F)ccc1OC(C)=O.Cl [Compound-7, 2-(diethylamino)ethyl 2′,4′-difluoro-4-acetoxy-[1,1′-biphenyl]-3-carboxylate hydrochloride] | 0.53 | 1.07 | 2.16 | 4.33 | –
CCN(CC)CCOC(=O)c1cc(-c2ccc(F)cc2F)ccc1O.Cl [Compound-10, 2-(diethylamino)ethyl 2′,4′-difluoro-4-hydroxyl-[1,1′-biphenyl]-3-carboxylate hydrochloride] | 0.49 | 1.03 | 2.12 | 4.39 | –
CC(=O)Oc1ccccc1C(=O)Oc1ccccc1C(=O)O [Compound-15, 2-(2-acetoxybenzoyl)oxybenzoic acid, reference compound] | 0.000 | 0.000 | 0.001 | 0.001 | infarct volume ([4]; 60 mg/kg oral bid 14 days): 39.25%±2.981; reduction of infarct volumes [4]: little reduction
CCN(CC)CCOC(=O)c1ccccc1OC(=O)c1ccccc1OC(C)=O.Cl [Compound-13, 2-(diethylamino)ethyl 2-(2-acetoxybenzoyl)oxybenzoate hydrochloride] | 0.46 | 0.97 | 1.99 | 3.89 | –
Cl.O=C(OCC1CCCN1)c1cc(-c2ccc(F)cc2F)ccc1O (stereo not shown) [Compound-11, (pyrrolidin-2-yl)methyl 2′,4′-difluoro-4-hydroxyl-[1,1′-biphenyl]-3-carboxylate hydrochloride] | 0.43 | 0.99 | 2.01 | 4.05 | –
CCN(CC)CCOC(=O)c1ccccc1OC(=O)c1ccccc1O.Cl [Compound-16, 2-(diethylamino)ethyl 2-(2-hydroxybenzoyl)oxybenzoate hydrochloride] | 0.37 | 0.87 | 1.71 | 3.56 | –
Cl.O=C(Oc1ccccc1C(=O)OCC1CCCN1)c1ccccc1O (stereo not shown) [Compound-17, (pyrrolidin-2-yl)methyl 2-(2-hydroxybenzoyl)oxybenzoate hydrochloride] | 0.32 | 0.68 | 1.39 | 2.97 | –
CC(=O)Oc1ccccc1C(=O)O [Compound-3, Aspirin] | 0.000 | 0.001 | 0.002 | 0.003 | infarct volume ([7]; Day 28 after MCA thrombosis): 1901 mm^3; Mortality rate [7]: 1/5; hemorrhage in the penumbra area [7]: showed hemorrhage; liquefaction in the infarct area (histopathology) [7]: moderate; neurological deficits ([7]; until 28 days after MCA thrombosis): tended to show slight recovery; infarct volume ([5]; 60 mg/kg oral bid 14 days): 36.27%±2.123; reduction of infarct volumes [5]: little reduction; degeneration of myocardium and myocardial necrosis (histopathology) [8]: moderate; infarct volume (myocardial) ([8]; 28 days after MCA thrombosis): 431 mm^3; infarct volume ([1]; 60 mg/kg oral bid 14 days): 37.99%±1.985; reduction of infarct volumes [1]: little reduction
CCN(CC)CCOC(=O)c1ccccc1O.Cl [Compound-4, 2-(diethylamino)ethyl hydroxybenzoate hydrochloride] | – | – | – | – | infarct volume [6, 12]: 34.56%±2.563; neuroprotective effect on brain ischemic injury [6, 13]: good neuroprotective effect; neurological deficit scores [6, 14]: show differences significantly; infarct volume [6, 9]: 37.01%±2.053; body weight [6, 10]: increased; infarct volume [6, 11]: 35.77%±1.875
O=C(O)c1ccccc1O [Compound-6, Salicylic acid, reference compound] | 0.000 | 0.001 | 0.002 | 0.002 | infarct volume ([6]; 60 mg/kg oral bid 14 days): 37.47%±2.856; reduction of infarct volumes [6]: little reduction
